Results on eight compounds are retold here after patent US20250312468A1, “ANTI-PROTAC ANTIBODIES AND COMPLEXES” (Merck Patent GmbH, priority 2021, published 2025).

A short description of data set [1]: PK study of CD33-based VHH fusions and PAX in C57BL/6N mice. The note with it: analyte tAntibody, 30 mg/kg i.v., mean. It counts as in vivo, mouse. As to the method:
Additionally, the PAX CD33xMIC5+GNE987 and CD33xMIC7+GNE987 were generated with a theoretical loading of 100% and investigated in PK studies conducted in C57BL/6N inbred mice (N=2 males and females for each group) provided by Charles River Laboratories Italia, Calco, Italy. The 7-8-week-old mice received 30 mg/kg (corresponding to 0.38 mg/kg PROTAC) of CD33xMIC5+GNE987 and CD33xMIC7+GNE987, CD33 antibody alone, CD33xMIC5 or CD33xMIC7 as single dose, that was intravenously injected into the tail vein. Samples have been serially collected from all animals using a microsampling technique ([…] for each blood withdrawal). After administration, two blood samples were taken on the first day and 7 during the three weeks later. Each sample was collected in pre-chilled (0-4° C.) Minivette POCT EDTA tube, transferred in Microvette CB300 EDTA and centrifuged at 2500×g for 10 min at 4° C. The obtained plasma was transferred into a new vial and immediately stored at −80° C. until further analyses. The PK study, animal handling and experimentation, was conducted in accordance with the Italian D.Lvo. 2014/26 and Directive 2010/63/EU. The study was performed at the Instituto di Ricerche Biomediche Antoine Marxer, Colleretto Giacosa, Italy. The institute is fully authorized by the Italian Ministry of Health.
The total antibody concentration was determined by ligand binding assay (LBA) based on the Meso Scale Diagnostics technology (MSD, LLC., Rockville, MD). All incubation steps were performed at 22° C. with gentle agitation. All washing steps (200 μL/well) were performed with PBS-T, containing PBS pH 7.4 and 0.01% Tween 20, using the plate washer ELx405 (BioTek instruments Inc., Winooski, VT). First, 2.5 μg/mL biotin-SP-conjugated AffiniPure goat anti-human IgG, Fcγ fragment specific (Jackson ImmunoResearch Europe Ltd., JIR, Cambridgeshire, United Kingdom, #109-065-098) was coated on MSD GOLD 96-well Streptavidin QUICKPLEX Plates (MSD, #L55SA) for 2 h. Afterwards, plates were washed three times. Plasma samples, standards and quality controls were serially diluted in dilution buffer, consisting of PBS pH 7.4, 0.05% Tween 20 and 3.0% (w/v) BSA, and incubated on the plates for 1 h. The plates were washed again and incubated for 1 h with 0.6 μg/ml mouse anti-human IgG, F(ab′)2 fragment specific (JIR, #209-005-097), previously labeled with MSD GOLG SULFO-TAG (MSD, #R31AA-1) according to the manufacturing procedure. After a final washing step, 150 μL of 2×MSD Read Buffer T with surfactant (MSD, #R92TC) was added to each well and plates were read on a MESO Quickplex SQ120 plate reader (MSD). The Software Watson LIMS (Version 7.5, ThermoFisher Scientific Inc.) was used to fit the standard curve with a 5PL (Marquart) equations, weighting factor 1/Y2, and to calculate the total mAb concentration of the plasma samples. The lower limit of quantification (LLOQ) was 50 ng/ml. The concentration of MSC2734242 was determined by liquid chromatography tandem mass spectrometry (LC-MS/MS) using a SCIEX 5500 triple quadrupole with Turbo Ion Spray source (ITS) in positive modality (SCIEX, Redwood City, CA, USA). Chromatographic separation was achieved using a Waters ACQUITY UPLC BEH (C18, 2.1×50 mm, 1.7 μm) column, mounted in a Waters ACQUITY I-class UPLC system (Milford, MA, USA), configured with a 100 μL extension loop. […]

The target of another data set is MIC2. The data set can be described thus: SPR binding of PROTACs to immobilized antibody MIC2. The settings on record: MIC2, 1:1 kinetic binding model. As to the method: The binding affinities of hit antibodies MIC1 and MIC2 to a diverse set of VH032-based PROTACs (FIGS. 8A-8B) was determined by surface plasmon resonance (SPR) in a Biacore T200 instrument. The running buffer consist of PBS, 0.05% Tween-20, 2% DMSO and temperature and flow rate were set to 30° C. and 30 μL/min, respectively. The assay setup is depicted exemplarily in FIG. 7A. CM5 sensor chips were coated with antibody (=ligand; 2500 RU) using standard EDC/NHS chemistry. PROTACs (=analytes) were serially diluted (1 μM-1.9 nM) in running buffer, injected to the instrument in consecutive runs and were captured by the antibody resulting in an increase of the corresponding SPR response. After the association step (300 s), running buffer was injected for 600 s and the PROTAC dissociated from the antibody leading to signal decrease. After each run, residual bound PROTAC was removed from the immobilized antibody by injection of 10 mM glycine/HCl, pH 1.5 for 2×30 s regenerating the antibody for the next association and dissociation cycle. To compensate for matrix effects, the measured SPR response signal was subtracted by the analyte response to an inactivated (EDC/NHS, ethanol amine) reference surface omitting the ligand. Furthermore, a DMSO solvent correction was performed and analyte response was subtracted by the running buffer signal. The corrected response was fitted by a 1:1 kinetic binding model yielding the on- (kon) and off-rate (koff) of the PROTAC, as well as its dissociation constant (KD).
A general note: Surface plasmon resonance follows binding to a sensor surface in real time, without labels.

Another data set addresses CD33xMIC10. The data set can be described thus: SPR affinity of VHH clone (antibody fusion) to PROTACs. The note with it: CD33xMIC10 immobilized, 25° C., read-out: KD [M] for antibody binding to PROTAC. As to the method: (§1) The kinetic and affinity parameters of protein-PROTAC interactions were evaluated by SPR. The anti-PROTAC VHH clones MIC5-MIC14 were immobilized as CD33 or CLL1 antibody fusion (the manufacturing of fusion proteins and the used linker is described in chapter 7.9) onto a CM5 (Series S) sensor chip via the standard amine coupling procedure, at 25° C. Prior to immobilization, the carboxymethylated surface of the chip was activated with 400 mM 1-ethyl-3-(3-dimethylaminopropyl)-carbodiimide and 100 mM N-hydroxysuccinimide for 7 min. Hit anti-PROTAC VHH as CD33 and CLL1 antibody fusions were diluted to 10 μg/ml in 10 mM Acetate at pH 4.5 and immobilized on the activated surface chip for 7 min, in order to reach 3,000 to 6,000 response units (RU). The remaining activated carboxymethylated groups were blocked with a 10 min injection of 1 M ethanolamine pH 8. HBS-N, which consists of 10 mM HEPES pH 7.4 and 150 mM NaCl, was used as the background buffer during immobilization. PROTACs were prediluted in DMSO, diluted 1:50 in running buffer (12 mM phosphate pH 7.4, 137 mM NaCl, 2.7 mM KCl, 0.05% Tween20, 2% DMSO) and injected at ten different concentrations using two-fold dilution series, from 1 μM to 0.002 μM. A DMSO solvent correction (1%-3%) was performed to account for variations in bulk signal and to achieve high-quality data. Interaction analysis cycles consisted of a 300 sec sample injection (30 μL/min; association phase) followed by 900 sec of buffer flow (dissociation phase).
(§2) All sensorgrams were processed by first subtracting the binding response recorded from the control surface (reference flow-channel), followed by subtracting of the buffer blank injection from the active flow-channel (target protein immobilized). All datasets were fit to a simple 1:1 Langmuir interaction model to determine the kinetic rate constants. Experiments were performed on a Biacore 8k+ (Cytiva, Uppsala, Sweden) at 25° C. and the interactions were evaluated using the provided Biacore Insight Evaluation software.

The target in the next data set is CD33xMIC11. Described as above. The note with it: CD33xMIC11 immobilized, 25° C., read-out: KD [M] for antibody binding to PROTAC. As to the method: as §1, §2
In a further data set the target is CD33xMIC12. Described as above. The settings on record: CD33xMIC12 immobilized, 25° C., read-out: KD [M] for antibody binding to PROTAC. The procedure: as §1, §2
For a further data set, the target named is CD33xMIC13. The data set is described as above. The settings on record: CD33xMIC13 immobilized, 25° C., read-out: KD [M] for antibody binding to PROTAC. As to the method:
as §1, §2

For the next data set, the target named is CD33xMIC14. The data set is described as above. The note with it: CD33xMIC14 immobilized, 25° C., read-out: KD [M] for antibody binding to PROTAC. The procedure: as §1, §2
Another data set has as its target CD33xMIC5. The description is as above. The note with it: CD33xMIC5 immobilized, 25° C., read-out: KD [M] for antibody binding to PROTAC. The procedure: as §1, §2
Another data set deals with CD33xMIC6. Described as above. The settings on record: CD33xMIC6 immobilized, 25° C., read-out: KD [M] for antibody binding to PROTAC. As to the method:
as §1, §2

Another data set addresses CD33xMIC7. Described as above. The note with it: CD33xMIC7 immobilized, 25° C., read-out: KD [M] for antibody binding to PROTAC. The procedure:
as §1, §2

The next data set addresses CD33xMIC8. Described as above. The note with it: CD33xMIC8 immobilized, 25° C., read-out: KD [M] for antibody binding to PROTAC. As to the method: as §1, §2
For a further data set, the target named is CD33xMIC9. The data set is described as above. The settings on record: CD33xMIC9 immobilized, 25° C., read-out: KD [M] for antibody binding to PROTAC. The procedure: as §1, §2

A value given as a limit tells only on which side of the number the result lay.

Turning to “CD33 Ab: parental CD33-binding antibody (gemtuzumab CDRs, IgG4) without VHH”, in data set [1], the AUC0-inf came to 219000 µg·h/mL; the Cl worked out at 3.36 mL/day/kg; the Cmax (commonly the maximum level reached in the sampled fluid or tissue) worked out at 810 µg/mL; the Vss – broadly, a proportionality between amount in the body and measured concentration, not a real space – was determined as 0.0742 L/kg. In addition, the t½ (commonly how long it takes for the measured level to halve) in data set [1] amounted to 237.0 h.

With `CC(=O)N[C@H](C(=O)N1C[C@H](O)C[C@H]1C(=O)NCc1ccc(-c2scnc2C)cc1)C(C)(C)SCCCCCCNC(=O)C[C@@H]1N=C(c2ccc(Cl)cc2)c2c(sc(C)c2C)-n2c(C)nnc21` [AT1], the Kd (usually the equilibrium constant for the complex coming apart) at MIC2 is 6 nM; at CD33xMIC10, 2.4e-09 M; at CD33xMIC11 it was 1.9e-10 M; on CD33xMIC12 it was 1.7e-09 M; on CD33xMIC13, 1.7e-09 M; at CD33xMIC14, 2.9e-09 M. In addition, the Kd on CD33xMIC5 was 2.4e-09 M; at CD33xMIC6, 7.3e-09 M; on CD33xMIC7, 2.1e-09 M; at CD33xMIC8 it was 5.2e-09 M; at CD33xMIC9, 1.4e-09 M. Besides, the koff entry in the data set on MIC2 is “NM/1.90E−03 1/s”. The kon entry in the data set with MIC2 is recorded as “NM/3.10E+05 1/Ms”.

Turning to `Cc1ncsc1-c1ccc(CNC(=O)[C@@H]2C[C@@H](O)CN2C(=O)[C@@H](NC(=O)C2(F)CC2)C(C)(C)C)c(OCCOc2ccc(CN3CCN(c4cc(-c5ccccc5O)nnc4N)CC3)cc2)c1` [ACBI1], the Kd at MIC2 was over 1000 nM; at CD33xMIC10, 8.5e-06 M; at CD33xMIC11, 0.00011 M; at CD33xMIC13, 9.3e-05 M; on CD33xMIC14, 9.3e-07 M; at CD33xMIC5, 2.5e-06 M. Moreover, the Kd on CD33xMIC6 was 6.5e-06 M.

Consider `Cc1nc(Nc2ncc(C(=O)Nc3c(C)cccc3Cl)s2)cc(N2CCN(C(=O)CCCCCCC(=O)N[C@H](C(=O)N3C[C@H](O)C[C@H]3C(=O)NCc3ccc(-c4scnc4C)cc3)C(C)(C)C)CC2)n1` [SIAIS178], for which, on MIC2, the Kd is 0.41 nM, the koff result is on record as “NM/4.25E−05 1/s” and the kon entry is on record as “NM/1.05E+05 1/Ms”. Further, the Kd on CD33xMIC7 was determined as 8.3e-09 M.

Regarding `CCCOc1cccc(Oc2cc3c(cc2NS(=O)(=O)c2cccc(C(=O)NCCOCCOCCOCC(=O)N[C@H](C(=O)N4C[C@H](O)C[C@H]4C(=O)NCc4ccc(-c5scnc5C)cc4)C(C)(C)C)c2)n(C)c(=O)n3C)c1` [dTRIM24], on MIC2, the Kd was found to be 0.42 nM, the koff result is listed as “NM/1.64E−04 1/s” and the kon result is “NM/3.92E+05 1/Ms”.

In the case of `CC(=O)N1c2ccc(-c3ccc(C(=O)NCCOCCOCCOCCOCC(=O)N[C@H](C(=O)N4C[C@H](O)C[C@H]4C(=O)NCc4ccc(-c5scnc5C)cc4)C(C)(C)C)cc3)cc2[C@H](Nc2ccc(Cl)cc2)C[C@@H]1C` [MZP55], at MIC2, the Kd is 0.63 nM, the koff result is reported as “NM/7.40E−05 1/s” and the kon entry was “NM/1.20E+05 1/Ms”.

Regarding `COc1cc(-c2cn(C)c(=O)c3cnccc23)cc(OC)c1CN1CCN(CCCCCOc2cc(-c3scnc3C)ccc2CNC(=O)[C@@H]2C[C@@H](O)CN2C(=O)[C@@H](NC(=O)C2(F)CC2)C(C)(C)C)CC1` [VZ185], the Kd at MIC2 is over 1000 nM.

With `CC(=O)N1c2ccc(-c3ccc(C(=O)NCCOCCOCCOCC(=O)N[C@H](C(=O)N4C[C@H](O)C[C@H]4C(=O)NCc4ccc(-c5scnc5C)cc4)C(C)(C)C)cc3)cc2[C@H](Nc2ccc(Cl)cc2)C[C@@H]1C` [MZP54], on MIC2, the Kd came to 0.42 nM, the koff result is “NM/8.40E−05 1/s” and the kon entry was “NM/2.00E+05 1/Ms”.
